Read-outs that look alike come from different tables or passages of the source.
Columns and labels:
[1] = tested on: Hsp90 client protein Her-2 in Skbr3 breast cancer cells; assay: Degradation of Her-2, Western blot in Skbr3 cells; assay type: cell-based
Experimental: After incubation, the cells were harvested, lysed, and equal amounts of the protein lysates loaded into SDS wells. After electrophoresis, the gel was probed with Her-2 and actin (control) antibodies.

[2] = tested on: primary cortical neurons exposed to Aβ25-35; assay: Protection against Aβ-induced toxicity in primary neurons (Live-Dead assay); assay type: cell-based, rat
Experimental: In this example, the neuroprotective effects of KU-1/A4 were determined in primary neurons derived from embryonic rat brain exposed to Aβ (10 μM) in the presence or absence of the test compound for 48 hours. The percentage of surviving neurons was determined by labeling with the fluorescent dyes calcein-AM and propidium iodide as previously described. […] The numbers of calcein-labeled live cells and propidium iodide-labeled dead neurons in several fields were visualized via fluorescence microscopy and counted as described.
Briefly, about 10 to 16 brains were removed from fetuses delivered by cesarean section, and the cortices dissected out. The neurons were isolated and suspended in DMEM/F12 supplemented with 10% FBS and plated on sterile dishes or cover slips coated with 10 μg/ml poly-D-lysine and 5 μg/ml mouse laminin. After 24 hours, the serum-containing medium was removed, and neurons were maintained in Neurobasal medium (Gibco) with 2% B-27 supplements (Gibco). Cells were maintained in culture at 37° C. in 5% CO2 and 97% humidity for 7 to 8 eight days in vitro (DIV) before use. Neurons were exposed to 0.004% DMSO or the indicated concentrations of GA or KU-1/A4 for two hours before the addition of 10 μM Aβ25-35 for either 24 or 48 hours as indicated. Stock solutions of Aβ were prepared in sterile water at a concentration of 1.3 mM and stored at −20° C. Aliquots of the stock solutions were diluted to 1 mM in sterile 50 mM Tris-HCl, pH 7.4, and incubated at 37° C. for 24 hours to promote oligomerization of the peptides prior to treatment of the neurons. The effects of KU-1/A4, GA, Aβ, or the indicated combinations on neuronal viability were determined by monitoring cell survival using the Live-Dead assay as previously described. […] Digital images from 6 fields per dish were captured, and the number of viable (green) and dead (red) cells counted. All experiments were conducted with duplicate dishes from at least two neuronal preparations for each treatment, with about 1,000 cells analyzed/treatment condition. The data are expressed as the fraction of viable cells calculated from the total number of neurons counted under each treatment condition. The significance of differences between cultures exposed to various treatment conditions was determined using Student's t-test.

[3] = tested on: MCF-7 (estrogen receptor positive breast cancer cells); assay: Anti-proliferation activity against MCF-7 cells (MTS/PMS); assay type: cell-based; conditions: up to 100 μM
Outline: (§1)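 Cells seeded at 2000/well, attached overnight, then exposed to compound at varying concentrations (1% DMSO final) for 72 hours at 37° C. Viable cells read by MTS/PMS, normalised to 1% DMSO as 100% proliferation. IC50 from separate triplicate experiments.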

[4] = tested on: Hsp70 in primary cortical neurons; assay: Hsp70 up-regulation in neuronal cells (immunoblot); assay type: cell-based, rat
Experimental: Inhibition of Hsp90 induces overexpression of both Hsp90 and Hsp70 through dissociation of Hsp90-HSF-1 complexes and subsequent translocation of HSF-1 to the nucleus. […] Thus, in this example, an immunoblot analysis of neuronal cells was performed for Hsp70.
Primary cortical neurons were prepared as described herein. Cells were incubated (37° C. in 5% CO2) with the indicated concentrations of GA or KU-1/A4 for 24 or 48 hours. Cells were washed three times with phosphate buffered saline (PBS), followed by addition of a cell lysis buffer (50 mM Tris-HCL, 150 mM NaCl, 5 mM EDTA, 5 mM EGTA, 1% NP40, 10% Glycerol, 1 mM Na3VO4, 10 mM sodium molybdate, 40 mM NaF, and 10 ul/ml of Calbiochem protease inhibitor cocktail III). Cells were collected by scraping the dishes and aspirating all contents. […] The membranes were probed with the indicated primary HSP70 antibody (1:500, Upstate Biotechnology) and immunoreactive proteins detected using the Lumiglo Western Blot Protein Detector Kit (KPL). The immunoblots were scanned using a Kodak Image Station 2000R to determine the pixel density of the bands and imported into Photoshop and analyzed as described in Zaidi et al., Oxidative inactivation of purified plasma membrane Ca2+-ATPase by hydrogen peroxide and protection by calmodulin, Biochem. 42 12001-12010 (2003). All blots were re-probed with antibodies to β-actin I-19R (Santa Cruz) as a loading control and the data are presented as the ratio of Hsp70 to actin in each lane. Cells from at least three separate cultures for each treatment condition were examined, and the significance of differences in the immunoreactivities of the bands observed under the various treatment conditions was assessed by Student's t-test for unpaired samples.

[5] = tested on: SkBr3 (Her2 overexpressing breast cancer cells); assay: Anti-proliferation activity against SkBr3 cells (MTS/PMS); assay type: cell-based; conditions: up to 100 μM
Outline: as §1

P-glycoprotein (P-gp) = P-glycoprotein (P-gp) (Bos taurus, UniProt A0A3Q1MB23); assay: Rhodamine 123 uptake assay in BMECs
Chain of P-glycoprotein (P-gp) (A0A3Q1MB23 1-1267): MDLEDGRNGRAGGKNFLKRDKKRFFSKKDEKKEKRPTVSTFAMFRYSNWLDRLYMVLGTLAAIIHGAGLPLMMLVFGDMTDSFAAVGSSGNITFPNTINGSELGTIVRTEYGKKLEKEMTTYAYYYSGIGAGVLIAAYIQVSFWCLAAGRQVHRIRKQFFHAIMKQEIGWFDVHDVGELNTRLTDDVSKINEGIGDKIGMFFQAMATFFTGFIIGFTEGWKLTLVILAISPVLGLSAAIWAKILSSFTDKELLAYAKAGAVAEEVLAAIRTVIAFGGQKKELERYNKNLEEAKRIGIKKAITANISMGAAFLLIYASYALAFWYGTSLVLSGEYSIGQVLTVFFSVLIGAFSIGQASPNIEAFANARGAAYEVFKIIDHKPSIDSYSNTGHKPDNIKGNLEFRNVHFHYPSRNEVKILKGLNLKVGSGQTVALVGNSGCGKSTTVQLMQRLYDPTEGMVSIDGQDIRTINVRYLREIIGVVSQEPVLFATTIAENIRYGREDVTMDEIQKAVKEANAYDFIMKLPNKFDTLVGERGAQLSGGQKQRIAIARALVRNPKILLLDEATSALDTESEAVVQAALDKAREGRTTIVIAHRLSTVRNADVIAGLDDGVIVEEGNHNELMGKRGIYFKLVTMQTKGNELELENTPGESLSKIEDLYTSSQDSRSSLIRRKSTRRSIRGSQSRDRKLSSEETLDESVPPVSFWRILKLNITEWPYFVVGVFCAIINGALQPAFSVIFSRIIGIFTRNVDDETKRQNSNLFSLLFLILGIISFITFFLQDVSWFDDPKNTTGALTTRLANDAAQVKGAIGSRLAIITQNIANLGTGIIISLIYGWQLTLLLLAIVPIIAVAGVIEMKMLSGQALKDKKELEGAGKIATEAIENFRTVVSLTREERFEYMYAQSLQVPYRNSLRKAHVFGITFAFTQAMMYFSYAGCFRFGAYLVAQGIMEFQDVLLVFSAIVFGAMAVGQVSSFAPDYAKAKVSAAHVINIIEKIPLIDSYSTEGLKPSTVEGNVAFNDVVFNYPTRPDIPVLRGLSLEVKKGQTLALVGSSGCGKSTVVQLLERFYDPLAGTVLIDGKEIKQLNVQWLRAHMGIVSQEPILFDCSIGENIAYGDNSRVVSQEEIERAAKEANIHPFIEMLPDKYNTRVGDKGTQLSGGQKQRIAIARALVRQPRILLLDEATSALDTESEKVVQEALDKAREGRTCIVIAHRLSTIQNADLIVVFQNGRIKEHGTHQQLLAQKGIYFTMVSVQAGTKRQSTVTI
Experimental: Taxol (10 μM) was used as a positive p-glycoprotein substrate.

## CO[C@@H]1[C@@H](O)[C@@H](O)[C@H](Oc2ccc3cc(NC(C)=O)c(=O)oc3c2)OC1(C)C [KU-1/A4, N-(7-((2R,3R,4S,5R)-3,4-dihydroxy-5-methoxy-6,6-dimethyl-tetrahydro-2H-pyran-2-yloxy)-2-oxo-2H-chromen-3-yl)acetamide]
[1]; 24 hours, normalized against actin
  IC50 (concentration producing 50% degradation of Her-2): low micromolar range
[1]; tested at 100 nM, 1 μM and 10 μM
  concentrations between which a rapid decrease in Her-2 was observed: between 100 nM and 1 μM
[2]; Aβ 10 μM, 48 hours
  lowest concentration with minor neuroprotective effects: 0.5 nM
[2]; Aβ 10 μM, compound added 2 hours before, viability at 48 hours
  lowest concentration giving (significant) protection of neurons against Aβ: 5 nM
[2]; Rattus norvegicus, Primary cortical neuron, read-out: EC50, prevention of Aβ-induced toxicity, Aβ 10 μM, compound added 2 hours before, viability at 48 hours
  EC50: ~6 nM
[2]; read-out: EC50, prevention of Aβ-induced toxicity, Aβ 10 μM, compound added 2 hours before, viability at 48 hours
  EC50: 5 nM
[3]
  anti-proliferative effects MCF-7: no anti-proliferative effects
[4]; 0.2 μM, 48 hours
  Hsp70 levels (ratio of Hsp70 to actin): significantly increased Hsp70 levels
[4]; 48 hours, compared to DMSO controls
  lowest concentration leading to increases in Hsp70 levels: 1 nM
[4]; higher concentrations (1 and 10 μM)
  Hsp70 levels: did not significantly increase Hsp70 levels
[5]
  anti-proliferative effects SkBr3: no anti-proliferative effects
P-glycoprotein (P-gp)
  P-gp substrate: not a substrate for P-gp
P-glycoprotein (P-gp); rhodamine 123 5 μM, Taxol 10 μM, KU-1/A4 up to 50 μM
  rhodamine 123 uptake: no effect on uptake

From patent US9120774B2 (University of Kansas, priority 2009, dated 2015)
